Measurements reported in patent US10561720B2, “Pharmaceutical compositions, comprising a combination of select carriers, vitamins, tannins and flavonoids as antigen-specific immuno-modulators” (EpitoGenesis, Inc., priority 2011, dated 2020).

Assays:
Female BALB/c mice = assay: Example 5: IM vaccination with gp120 BaL in oleic acid formulations, serum gp120-specific IgG1 ELISA at 2WP2; type: in vivo; conditions: 40% oleic acid, compared to oleic acid plus EGCG, VA plus EGCG alone or no adjuvant, FIG. 11
Description: Groups of 4 female BALB/C mice were vaccinated intra-muscularly with various vaccine formulations containing 2.5 ug gp120 from the BaL Glade of HIV-1 twice at a 3 weeks interval. Serum gp120-specific IgG1 titers were measured by ELISA at 2 weeks post second vaccination (2WP2). The mice were vaccinated with combinations of retinyl palmitate (RP; 54 IU), epigallo catechin gallate (EGCG; 120 ug) in either 40% oleic acid, each alone or in various combinations.

murine air pouch model = murine air pouch model of local cytotoxicity, multiplex Luminex of pouch fluid; type: in vivo, mice; conditions: compared to injection of NIDS, FIG. 7
Description: A local cytotoxicity test was performed by employing the murine air pouch model.

BALB/c mice = assay: cytokine responses in iliac lymph nodes after mucosal (IN/SL) and systemic (IM) vaccinations; type: in vivo; conditions: two mucosal (IN/SL) and one systemic (IM) boosting vaccinations vs. three IM vaccinations with Imject Alum; FIG. 4
mice = assay: serum TNFα and IL-6 at 6 hours following a single IM injection; type: in vivo; conditions: 6 hours after single IM vaccination; vs. NIDS or no adjuvant; FIG. 8
Description: To find further in vivo support of the above air pouch model results, in vivo production of early pro-inflammatory cytokines TNFα and IL-6 were determined in sera of mice at 6 hours following a single IM injection of NIDS vs. poly (I:C) vs. no adjuvant.

[1] = air pouch supernatant 6 hours after injection

| Molecule | serum IgG1 antigen-specific responses (Female BALB/c mice) | TNFα (murine air pouch model; air pouch supernatant 6 hours after injection of seven mouse vaccine dose equivalents) | G-CSF (murine air pouch model; [1]) | IL-6 (murine air pouch model; [1]) | IP-10 (murine air pouch model; [1]) | KC (murine air pouch model; [1]) | MCP-1 (murine air pouch model; [1]) | MIP1-a (murine air pouch model; [1]) | MIP-1b (murine air pouch model; [1]) | MIP-2 (murine air pouch model; [1]) | RANTES (murine air pouch model; [1]) | local TH1 and TH2 cytokine responses in iliac lymph nodes (BALB/c mice) | serum IL-6 (mice) | serum TNFα (mice) |
| --- | --- | --- | --- | --- | --- | --- | --- | --- | --- | --- | --- | --- | --- | --- |
| CCCCCCCC/C=C\CCCCCCCC(=O)O [oleic acid] | enhanced | – | – | – | – | – | – | – | – | – | – | – | – | – |
| poly (I:C) | – | Significantly higher | Significantly higher | Significantly higher | Significantly higher | Significantly higher | Significantly higher | Significantly higher | Significantly higher | Significantly higher | Significantly higher | enhanced | significantly enhanced | significantly enhanced |
